In ChEMBL document CHEMBL3046612, “Design, multicomponent synthesis, and bioactivities of novel neonicotinoid analogues with 1,4-dihydropyridine scaffold” (2010):

Test system: Aphis craccivora
Test: Insecticidal activity against Aphis craccivora (cowpea aphid) in tender shoots of soybean assessed as mortality at 500 mg/L measured after 1 days (reference value: 4.3%)
Format: functional
Conditions: 24 h

Row | Structure (SMILES) | mortality at 500 µg/mL
1 | N#CC1=C(N)N2CCN(Cc3ccc(Cl)nc3)C2=C([N+](=O)[O-])C1c1ccc([N+](=O)[O-])cc1 (stereo unspecified) | 77%
2 | N#CC1=C(N)N2CCN(Cc3ccc(Cl)nc3)C2=C([N+](=O)[O-])C1c1ccc(OC(F)(F)F)cc1 (stereo unspecified) | 100%
3 | Cc1c(F)cccc1C1C(C#N)=C(N)N2CCN(Cc3ccc(Cl)nc3)C2=C1[N+](=O)[O-] (stereo unspecified) | 100%
4 | N#CC1=C(N)N2CCN(Cc3ccc(Cl)nc3)C2=C([N+](=O)[O-])C1c1ccc(Br)cc1Cl (stereo unspecified) | 85%
5 | Cc1ccc(F)cc1C1C(C#N)=C(N)N2CCN(Cc3ccc(Cl)nc3)C2=C1[N+](=O)[O-] (stereo unspecified) | 100%
6 | N#CC1=C(N)N2CCN(Cc3ccc(Cl)nc3)C2=C([N+](=O)[O-])C1c1ccc(C#N)cc1 (stereo unspecified) | 93.7%
7 | N#CC1=C(N)N2CCN(Cc3ccc(Cl)nc3)C2=C([N+](=O)[O-])C1c1ccc(Cl)cc1F (stereo unspecified) | 88%
8 | O=[N+]([O-])/N=C1\NCCN1Cc1ccc(Cl)nc1 [IMIDACLOPRID] | 100%
9 | COc1ccc(C2C(C#N)=C(N)N3CCN(Cc4ccc(Cl)nc4)C3=C2[N+](=O)[O-])cc1 (stereo unspecified) | 100%
10 | N#CC1=C(N)N2CCN(Cc3ccc(Cl)nc3)C2=C([N+](=O)[O-])C1c1cccc([N+](=O)[O-])c1 (stereo unspecified) | 91.9%
11 | Cc1ccc(C2C(C#N)=C(N)N3CCN(Cc4ccc(Cl)nc4)C3=C2[N+](=O)[O-])c(F)c1 (stereo unspecified) | 72.9%
12 | N#CC1=C(N)N2CCN(Cc3ccc(Cl)nc3)C2=C([N+](=O)[O-])C1c1ccccc1 (stereo unspecified) | 83.1%
13 | N#CC1=C(N)N2CCN(Cc3ccc(Cl)nc3)C2=C([N+](=O)[O-])C1c1cccc(Br)c1 (stereo unspecified) | 91.8%
14 | Cc1cc(C2C(C#N)=C(N)N3CCN(Cc4ccc(Cl)nc4)C3=C2[N+](=O)[O-])c(Br)cc1F (stereo unspecified) | 75.9%
15 | N#CC1=C(N)N2CCN(Cc3ccc(Cl)nc3)C2=C([N+](=O)[O-])C1c1ccc(Cl)cc1C(F)(F)F (stereo unspecified) | 100%
16 | N#CC1=C(N)N2CCN(Cc3ccc(Cl)nc3)C2=C([N+](=O)[O-])C1c1ccc(Cl)cc1Cl (stereo unspecified) | 93.4%
17 | N#CC1=C(N)N2CCN(Cc3ccc(Cl)nc3)C2=C([N+](=O)[O-])C1c1cccc(C#N)c1 (stereo unspecified) | 80%

Test system: Aphis craccivora
Test: Insecticidal activity against Aphis craccivora (cowpea aphid) in tender shoots of soybean assessed as mortality measured after 1 days
Format: functional
Conditions: 24 h

Row | Structure (SMILES) | LC50
18 | N#CC1=C(N)N2CCN(Cc3ccc(Cl)nc3)C2=C([N+](=O)[O-])C1c1ccc(OC(F)(F)F)cc1 (stereo unspecified) | 98 µM
19 | Cc1c(F)cccc1C1C(C#N)=C(N)N2CCN(Cc3ccc(Cl)nc3)C2=C1[N+](=O)[O-] (stereo unspecified) | 3.45 µM
20 | Cc1ccc(F)cc1C1C(C#N)=C(N)N2CCN(Cc3ccc(Cl)nc3)C2=C1[N+](=O)[O-] (stereo unspecified) | 96.1 µM
21 | N#CC1=C(N)N2CCN(Cc3ccc(Cl)nc3)C2=C([N+](=O)[O-])C1c1ccc(C#N)cc1 (stereo unspecified) | 175 µM
22 | COc1ccc(C2C(C#N)=C(N)N3CCN(Cc4ccc(Cl)nc4)C3=C2[N+](=O)[O-])cc1 (stereo unspecified) | 9.75 µM
23 | N#CC1=C(N)N2CCN(Cc3ccc(Cl)nc3)C2=C([N+](=O)[O-])C1c1cccc([N+](=O)[O-])c1 (stereo unspecified) | 79 µM
24 | N#CC1=C(N)N2CCN(Cc3ccc(Cl)nc3)C2=C([N+](=O)[O-])C1c1cccc(Br)c1 (stereo unspecified) | 197 µM
25 | N#CC1=C(N)N2CCN(Cc3ccc(Cl)nc3)C2=C([N+](=O)[O-])C1c1ccc(Cl)cc1C(F)(F)F (stereo unspecified) | 61.6 µM
26 | N#CC1=C(N)N2CCN(Cc3ccc(Cl)nc3)C2=C([N+](=O)[O-])C1c1ccc(Cl)cc1Cl (stereo unspecified) | 133 µM
